Earlier results, collected in PubChem BioAssay AID1259409 (Chemical Carcinogenesis Research Information System (CCRIS), 2018).

System: rodent chemically induced tumor inhibition, incidence and multiplicity
Assay: CCRIS tumor inhibitor studies

Row | Structure (SMILES) | tumour outcome (control, treated, inhibition, significance) (Carcinogen: 1,2-DIMETHYLHYDRAZINE DIHYDROCHLORIDE, 306-37-6, Dose [Inhibitor]: 900 MG/L IN DRINKING WATER BEGINNING 7 D POST CARCINOGEN DOSE AND CONTINUING FOR 39 WK (STUDY DURATION: 39 WK), Route [Inhibitor]: ORAL, Species: RAT, Strain/Sex: F344/MALE, Target Tissue: Type of Lesion: GASTROINTESTINAL TRACT: TUMOR, Dose [Carcinogen]: 200 MG/KG ONCE, Promoter: NONE USED) | tumour outcome (control, treated, inhibition, significance) (Carcinogen: 1,2-DIMETHYLHYDRAZINE DIHYDROCHLORIDE, 306-37-6, Dose [Inhibitor]: 1800 MG/L IN DRINKING WATER BEGINNING 7 D POST CARCINOGEN DOSE AND CONTINUING FOR 39 WK (STUDY DURATION: 39 WK), Route [Inhibitor]: ORAL, Species: RAT, Strain/Sex: F344/MALE, Target Tissue: Type of Lesion: GASTROINTESTINAL TRACT: TUMOR, Dose [Carcinogen]: 200 MG/KG ONCE, Promoter: NONE USED) | tumour outcome (control, treated, inhibition, significance) (Carcinogen: ETHYLNITROSOUREA, 759-73-9, Dose [Inhibitor]: 0, 1800 PPM IN DRINKING WATER BEGINNING AT 5 WK OF AGE AND CONTINUING TO 51 WK OF AGE (STUDY DURATION: 52 WK), Route [Inhibitor]: ORAL, Species: MOUSE, Strain/Sex: CD-1/FEMALE, Target Tissue: Type of Lesion: LUNG: ADENOMA, Dose [Carcinogen]: 5 MG/KG ONCE AT 15 D OF AGE, Promoter: NONE USED) | tumour outcome (control, treated, inhibition, significance) (Carcinogen: ETHYLNITROSOUREA, 759-73-9, Dose [Inhibitor]: 0, 1800 PPM IN DRINKING WATER BEGINNING AT 5 WK OF AGE AND CONTINUING TO 51 WK OF AGE (STUDY DURATION: 52 WK), Route [Inhibitor]: ORAL, Species: MOUSE, Strain/Sex: CD-1/FEMALE, Target Tissue: Type of Lesion: LUNG: ADENOMA, Dose [Carcinogen]: 20 MG/KG ONCE AT 15 D OF AGE, Promoter: NONE USED) | tumour outcome (control, treated, inhibition, significance) (Carcinogen: ETHYLNITROSOUREA, 759-73-9, Dose [Inhibitor]: 0, 1800 PPM IN DRINKING WATER BEGINNING AT 5 WK OF AGE AND CONTINUING TO 51 WK OF AGE (STUDY DURATION: 52 WK), Route [Inhibitor]: ORAL, Species: MOUSE, Strain/Sex: CD-1/FEMALE, Target Tissue: Type of Lesion: LUNG: CARCINOMA, Dose [Carcinogen]: 5 MG/KG ONCE AT 15 D OF AGE, Promoter: NONE USED) | tumour outcome (control, treated, inhibition, significance) (Carcinogen: ETHYLNITROSOUREA, 759-73-9, Dose [Inhibitor]: 0, 1800 PPM IN DRINKING WATER BEGINNING AT 5 WK OF AGE AND CONTINUING TO 51 WK OF AGE (STUDY DURATION: 52 WK), Route [Inhibitor]: ORAL, Species: MOUSE, Strain/Sex: CD-1/FEMALE, Target Tissue: Type of Lesion: LUNG: CARCINOMA, Dose [Carcinogen]: 20 MG/KG ONCE AT 15 D OF AGE, Promoter: NONE USED) | tumour outcome (control, treated, inhibition, significance) (Carcinogen: ETHYLNITROSOUREA, 759-73-9, Dose [Inhibitor]: 0, 1800 PPM IN DRINKING WATER BEGINNING AT 5 WK OF AGE AND CONTINUING TO 51 WK OF AGE (STUDY DURATION: 52 WK), Route [Inhibitor]: ORAL, Species: MOUSE, Strain/Sex: CD-1/MALE, Target Tissue: Type of Lesion: LIVER: ADENOMA, Dose [Carcinogen]: 5 MG/KG ONCE AT 15 D OF AGE, Promoter: NONE USED) | tumour outcome (control, treated, inhibition, significance) (Carcinogen: ETHYLNITROSOUREA, 759-73-9, Dose [Inhibitor]: 0, 1800 PPM IN DRINKING WATER BEGINNING AT 5 WK OF AGE AND CONTINUING TO 51 WK OF AGE (STUDY DURATION: 52 WK), Route [Inhibitor]: ORAL, Species: MOUSE, Strain/Sex: CD-1/MALE, Target Tissue: Type of Lesion: LIVER: ADENOMA, Dose [Carcinogen]: 20 MG/KG ONCE AT 15 D OF AGE, Promoter: NONE USED) | tumour outcome (control, treated, inhibition, significance) (Carcinogen: ETHYLNITROSOUREA, 759-73-9, Dose [Inhibitor]: 0, 1800 PPM IN DRINKING WATER BEGINNING AT 5 WK OF AGE AND CONTINUING TO 51 WK OF AGE (STUDY DURATION: 52 WK), Route [Inhibitor]: ORAL, Species: MOUSE, Strain/Sex: CD-1/MALE, Target Tissue: Type of Lesion: LIVER: CARCINOMA, Dose [Carcinogen]: 5 MG/KG ONCE AT 15 D OF AGE, Promoter: NONE USED) | tumour outcome (control, treated, inhibition, significance) (Carcinogen: ETHYLNITROSOUREA, 759-73-9, Dose [Inhibitor]: 0, 1800 PPM IN DRINKING WATER BEGINNING AT 5 WK OF AGE AND CONTINUING TO 51 WK OF AGE (STUDY DURATION: 52 WK), Route [Inhibitor]: ORAL, Species: MOUSE, Strain/Sex: CD-1/MALE, Target Tissue: Type of Lesion: LIVER: CARCINOMA, Dose [Carcinogen]: 20 MG/KG ONCE AT 15 D OF AGE, Promoter: NONE USED) | tumour outcome (control, treated, inhibition, significance) (Carcinogen: ETHYLNITROSOUREA, 759-73-9, Dose [Inhibitor]: 0, 1800 PPM IN DRINKING WATER BEGINNING AT 5 WK OF AGE AND CONTINUING TO 51 WK OF AGE (STUDY DURATION: 52 WK), Route [Inhibitor]: ORAL, Species: MOUSE, Strain/Sex: CD-1/MALE, Target Tissue: Type of Lesion: LUNG: ADENOMA, Dose [Carcinogen]: 5 MG/KG ONCE AT 15 D OF AGE, Promoter: NONE USED) | tumour outcome (control, treated, inhibition, significance) (Carcinogen: ETHYLNITROSOUREA, 759-73-9, Dose [Inhibitor]: 0, 1800 PPM IN DRINKING WATER BEGINNING AT 5 WK OF AGE AND CONTINUING TO 51 WK OF AGE (STUDY DURATION: 52 WK), Route [Inhibitor]: ORAL, Species: MOUSE, Strain/Sex: CD-1/MALE, Target Tissue: Type of Lesion: LUNG: ADENOMA, Dose [Carcinogen]: 20 MG/KG ONCE AT 15 D OF AGE, Promoter: NONE USED) | tumour outcome (control, treated, inhibition, significance) (Carcinogen: ETHYLNITROSOUREA, 759-73-9, Dose [Inhibitor]: 0, 1800 PPM IN DRINKING WATER BEGINNING AT 5 WK OF AGE AND CONTINUING TO 51 WK OF AGE (STUDY DURATION: 52 WK), Route [Inhibitor]: ORAL, Species: MOUSE, Strain/Sex: CD-1/MALE, Target Tissue: Type of Lesion: LUNG: CARCINOMA, Dose [Carcinogen]: 5 MG/KG ONCE AT 15 D OF AGE, Promoter: NONE USED) | tumour outcome (control, treated, inhibition, significance) (Carcinogen: ETHYLNITROSOUREA, 759-73-9, Dose [Inhibitor]: 0, 1800 PPM IN DRINKING WATER BEGINNING AT 5 WK OF AGE AND CONTINUING TO 51 WK OF AGE (STUDY DURATION: 52 WK), Route [Inhibitor]: ORAL, Species: MOUSE, Strain/Sex: CD-1/MALE, Target Tissue: Type of Lesion: LUNG: CARCINOMA, Dose [Carcinogen]: 20 MG/KG ONCE AT 15 D OF AGE, Promoter: NONE USED) | tumour outcome (control, treated, inhibition, significance) (Carcinogen: 7,12-DIMETHYLBENZ[A]ANTHRACENE, 57-97-6, Dose [Inhibitor]: 0, 10 MG A WK IN DRINKING WATER BEGINNING 1 WK POST CARCINOGEN DOSE AND CONTINUING FOR DURATION OF STUDY (STUDY DURATION, Route [Inhibitor]: ORAL, Species: MOUSE, Strain/Sex: SENCAR/MALE, Target Tissue: Type of Lesion: SKIN: PAPILLOMA, Dose [Carcinogen]: 100 NMOL IN 200 µL ACETONE ONCE, Promoter: 12-O-TETRADECANOYLPHORBOL-13-ACETATE, 16561-29-8) | tumour outcome (control, treated, inhibition, significance) (Carcinogen: N-METHYL-N'-NITRO-N-NITROSOGUANIDINE, 70-25-7, Dose [Inhibitor]: 10 MG/KG BW IN DEPOT FORM 1/2 D BEGINNING 1 WK POST LAST CARCINOGEN DOSE FOR DURATION OF STUDY (STUDY DURATION: 52 WK), Route [Inhibitor]: SUBCUTANEOUS, Species: RAT, Strain/Sex: WISTAR/MALE, Target Tissue: Type of Lesion: STOMACH: ADENOCARCINOMA, Dose [Carcinogen]: 50 UG/ML IN DRINKING WATER FOR 25 WK, Promoter: NONE USED) | tumour outcome (control, treated, inhibition, significance) (Carcinogen: N-METHYL-N'-NITRO-N-NITROSOGUANIDINE, 70-25-7, Dose [Inhibitor]: 20 MG/KG BW IN DEPOT FORM 1/2 D BEGINNING 1 WK POST LAST CARCINOGEN DOSE FOR DURATION OF STUDY (STUDY DURATION: 52 WK), Route [Inhibitor]: SUBCUTANEOUS, Species: RAT, Strain/Sex: WISTAR/MALE, Target Tissue: Type of Lesion: STOMACH: ADENOCARCINOMA, Dose [Carcinogen]: 50 UG/ML IN DRINKING WATER FOR 25 WK, Promoter: NONE USED)
1 | ClC(Cl)Cl | 14/39 (36%), 5/39 (13%), 64%, not calculated | 14/39 (36%), 5/40 (13%), 64%, not calculated | 10/36 (28%), 7/38 (18%), 36%, not calculated | 25/39 (64%), 23/45 (51%), 20%, not calculated | 1/36 (3%), 2/38 (5%), -67%, not calculated | 2/39 (5%), 5/45 (11%), -120%, not calculated | 8/39 (21%), 1/25 (4%), 81%, p<0.05 | 22/30 (73%), 12/29 (41%), 44%, p<0.05 | 2/39 (5%), 0/25 (0%), 100%, not calculated | 10/30 (33%), 5/29 (17%), 48%, p<0.1 | 11/39 (29%), 10/25 (40%), -38%, not calculated | 15/30 (50%), 12/29 (41%), 18%, not calculated | 1/39 (3%), 1/25 (4%), -33%, not calculated | 2/30 (7%), 4/29 (14%), -100%, not calculated |  |  | 
2 | CN=C(NC#N)NCCSCc1nc[nH]c1C |  |  |  |  |  |  |  |  |  |  |  |  |  |  | 95%, 100%, -5%, not calculated | 12/19 (63%), 13/19 (68%), -8%, not calculated | 12/19 (63%), 11/19 (58%), 8%, not calculated
